Structures can show the parent of a compound that is named as a salt.
Columns and labels:
Type in all cases: in vivo
[1] = tested on: Stellaria media; assay: Herbicidal screen, post-emergence spray of seedlings in pots: Chickweed; conditions: Stellaria media, post-emergence, 240 h, assessed 10 days after treatment, read-out: percentage increase in necrosis relative to the control
Method: (§1) Compounds were screened at four concentrations (100, 50, 25 and 12.5 g/ha) against four weed species (Stellaria media—Chickweed; Abutilon theophrasti—velvetleaf; Amaranthus retroflexus—common amaranthus; Echinochloa crus-galli—Barnyard grass) and maize as a crop species. Seed were sown in 12.5 cm diameter pots (20 per pot for the weed species and 5 for maize). Seedlings were sprayed with 2 ml of compound two weeks after sowing, with 2 ml water used as the control. Each treatment was replicated three times. Plants were maintained at 20° C. and assessed 10 days after treatment. The assessment was based on the % plant in each pot showing growth. The data is presented in Table 1 in which d represents no detected effect at this concentration; c represents a percentage increase in necrosis relative to the control of 0.1-50; b represents a percentage increase in necrosis of 50-80; and a represents a percentage increase in necrosis of 80-100.

[2] = tested on: Abutilon theophrasti; assay: Herbicidal screen, post-emergence spray of seedlings in pots: velvetleaf; conditions: Abutilon theophrasti, post-emergence, 240 h, assessed 10 days after treatment, read-out: percentage increase in necrosis relative to the control
Method: as §1

[3] = tested on: Amaranthus retroflexus; assay: Herbicidal screen, post-emergence spray of seedlings in pots: common amaranthus; conditions: Amaranthus retroflexus, post-emergence, 240 h, assessed 10 days after treatment, read-out: percentage increase in necrosis relative to the control
Method: as §1

[4] = tested on: Echinochloa crus-galli; assay: Herbicidal screen, post-emergence spray of seedlings in pots: Barnyard grass; conditions: Echinochloa crus-galli, post-emergence, 240 h, assessed 10 days after treatment, read-out: percentage increase in necrosis relative to the control
Method: as §1

[5] = tested on: maize; assay: Herbicidal screen, post-emergence spray of seedlings in pots: crop species; conditions: Zea mays, post-emergence, 240 h, assessed 10 days after treatment, read-out: percentage increase in necrosis relative to the control
Method: as §1

SMILES	pest or weed control at 12.5 g/ha [1] [%]	pest or weed control at 25 g/ha [1] [%]	pest or weed control at 50 g/ha [1] [%]	pest or weed control at 100 g/ha [1] [%]	pest or weed control at 12.5 g/ha [2] [%]	pest or weed control at 25 g/ha [2] [%]	pest or weed control at 50 g/ha [2] [%]	pest or weed control at 100 g/ha [2] [%]	pest or weed control at 12.5 g/ha [3] [%]	pest or weed control at 25 g/ha [3] [%]	pest or weed control at 50 g/ha [3] [%]	pest or weed control at 100 g/ha [3] [%]	pest or weed control at 12.5 g/ha [4] [%]	pest or weed control at 25 g/ha [4] [%]	pest or weed control at 50 g/ha [4] [%]	pest or weed control at 100 g/ha [4] [%]	plant injury at 12.5 g/ha [5] [%]	plant injury at 25 g/ha [5] [%]	plant injury at 50 g/ha [5] [%]	plant injury at 100 g/ha [5] [%]
Cn1c(C(F)(F)F)cc(=O)n(-c2cc(C(=O)NS(=O)(=O)C3CCOCC3)c(Cl)cc2F)c1=O [Example 1, 2-Chloro-4-fluoro-5-(3-methyl-2,6-dioxo-4-(trifluoromethyl)-3,6-dihydropyrimidin-1(2H)-yl)-N-((tetrahydro-2H-pyran-4-yl)sulfonyl)benzamide]	0.1 to 50	0.1 to 50	0.1 to 50	0.1 to 50	0.1 to 50	50 to 80	50 to 80	50 to 80	0.1 to 50	50 to 80	50 to 80	80 to 100	0.1 to 50	0.1 to 50	0.1 to 50	0.1 to 50	0.1 to 50	0.1 to 50	0.1 to 50	0.1 to 50
Cn1c(C(F)(F)F)cc(=O)n(-c2cc(C(=O)NS(=O)(=O)C3CCNC3)c(Cl)cc2F)c1=O (stereo not drawn) [Example 4, 2-Chloro-4-fluoro-5-(3-methyl-2,6-dioxo-4-(trifluoromethyl)-3,6-dihydropyrimidin-1(2H)-yl)-N-(pyrrolidin-3-ylsulfonyl)benzamide hydrochloride]	0.1 to 50	0.1 to 50	0.1 to 50	50 to 80	0.1 to 50	0.1 to 50	0.1 to 50	50 to 80	50 to 80	50 to 80	80 to 100	80 to 100	0.1 to 50	0.1 to 50	0.1 to 50	0.1 to 50	0.1 to 50	0.1 to 50	0.1 to 50	0.1 to 50
Cn1c(C(F)(F)F)cc(=O)n(-c2cc(C(=O)NS(=O)(=O)C3CNC3)c(Cl)cc2F)c1=O [Example 6, N-(Azetidin-3-ylsulfonyl)-2-chloro-4-fluoro-5-(3-methyl-2,6-dioxo-4-(trifluoromethyl)-3,6-dihydropyrimidin-1(2H)-yl)benzamide hydrochloride]	0.1 to 50	0.1 to 50	0.1 to 50	50 to 80	0.1 to 50	0.1 to 50	50 to 80	50 to 80	50 to 80	50 to 80	80 to 100	80 to 100	0.1 to 50	0.1 to 50	0.1 to 50	0.1 to 50	0.1 to 50	0.1 to 50	0.1 to 50	0.1 to 50
Cn1c(C(F)(F)F)cc(=O)n(-c2cc(C(=O)NS(=O)(=O)C3CC3)c(F)cc2F)c1=O [Example 8, N-(Cyclopropylsulfonyl)-2,4-difluoro-5-(3-methyl-2,6-dioxo-4-(trifluoromethyl)-3,6-dihydropyrimidin-1(2H)-yl)benzamide]	0.1 to 50	0.1 to 50	0.1 to 50	50 to 80	0.1 to 50	0.1 to 50	50 to 80	50 to 80	0.1 to 50	0.1 to 50	80 to 100	80 to 100	0.1 to 50	0.1 to 50	50 to 80	50 to 80	0.1 to 50	0.1 to 50	0.1 to 50	0.1 to 50
Cn1c(C(F)(F)F)cc(=O)n(-c2cc(C(=O)NS(=O)(=O)C3CCS(=O)(=O)C3)c(Cl)cc2F)c1=O (stereo not drawn) [Example 10, 2-Chloro-N-((1,1-dioxidotetrahydrothiophen-3-yl)sulfonyl)-4-fluoro-5-(3-methyl-2,6-dioxo-4-(trifluoromethyl)-3,6-dihydropyrimidin-1(2H)-yl)benzamide]	0.1 to 50	0.1 to 50	0.1 to 50	0.1 to 50	0.1 to 50	0.1 to 50	0.1 to 50	0.1 to 50	50 to 80	50 to 80	50 to 80	50 to 80	0.1 to 50	0.1 to 50	0.1 to 50	0.1 to 50	0.1 to 50	0.1 to 50	0.1 to 50	0.1 to 50
Cn1c(C(F)(F)F)cc(=O)n(-c2cc(C(=O)NS(=O)(=O)C3CC3)c(Cl)cc2F)c1=O [Example 12, 2-Chloro-N-(cyclopropylsulfonyl)-4-fluoro-5-(3-methyl-2,6-dioxo-4-(trifluoromethyl)-3,6-dihydropyrimidin-1(2H)-yl)benzamide]	0.1 to 50	0.1 to 50	0.1 to 50	0.1 to 50	0.1 to 50	0.1 to 50	0.1 to 50	50 to 80	50 to 80	50 to 80	80 to 100	80 to 100	0.1 to 50	0.1 to 50	0.1 to 50	0.1 to 50	0.1 to 50	0.1 to 50	0.1 to 50	0.1 to 50

From US11634390B2, “Agricultural chemicals” (GLOBACHEM NV, priority 2016, dated 2023)
